Earlier results in patent US6559165B1, “Methods for treating bulimia using optically pure (−) norcisapride” (priority 1998, dated 2003).

Legend:
[1] = co-administration with ketoconazole

COc1cc(N)c(Cl)cc1C(=O)N[C@H]1CCN(CCCOc2ccc(F)cc2)C[C@H]1OC (racemic) [(±) Cisapride, cis-4-amino-5-chloro-N-[1-[3-(4-fluorophenoxy)propyl]-3-methoxy-4-piperidinyl]-2-methoxybenzamide]
increase of steady-state plasma levels [1]: 8 fold
portion of dose metabolized (humans, oxidative N-dealkylation or aromatic hydroxylation): More than 90%
bioavailability (oral administration to humans, rapid first-pass metabolism in the liver): 40-50%
